pEC50, pIC50: −log10 of the molar value. Values after ≈ are worked out from the molar mass of the structure shown. Read-outs that look alike come from different tables or passages of the source. Some results are limits rather than exact numbers.

Data set [1] deals with T1, Human NLRP3 (Homo sapiens (Human), UniProt Q96P20). Put plainly: Human NLRP3 speck formation assay (Test A), nigericin triggered ASC-speck formation in ASC-GFP reporter monocytes.
In data set [2] the test system is IL-1β production. The data set can be described thus: LPS/ATP test in mice, peritoneal IL-1β by ELISA. It counts as in vivo, BALB/cAJcl mice. The following applies: Mus musculus, LPS/ATP i.p.; for inhibition at 3 mg/kg: 3 mg/kg orally; for inhibition at 1 mg/kg: 1 mg/kg orally. For orientation: An ELISA detects its analyte on a solid surface through an enzyme-linked reagent.

Data set [3] concerns the target T1, Human NLRP3. The settings on record: Test C IC50, IL-1β release, THP-1 cells, LPS 2 μg/mL 24 h, BzATP 1 mM.
The nature of data set [4]: Solubility (Test F), McIlvaine buffer pH 6.5. Format: physicochemical. The following applies: 25 °C, pH 6.5, aqueous buffer, thermodynamic from solid, McIlvaine buffer pH 6.5, 25° C., 24 to 72 h, theoretical maximum 200 μM.
The nature of data set [5]: Solubility (Test E). Format: physicochemical.
For data set [6], the target named is T1, Human NLRP3.
Data set [7] addresses hERG (Homo sapiens (Human), UniProt Q12809). The data set can be described thus: hERG assay (Test D), SyncroPatch 384PE patch clamp, hERG-expressing CHO cells. It counts as cell-based. The following applies: rt.
[8] abbreviates: disodium hydrogenphosphate-citric acid (McIlvaine) buffer.

Sequence of hERG (Q12809 whole entry): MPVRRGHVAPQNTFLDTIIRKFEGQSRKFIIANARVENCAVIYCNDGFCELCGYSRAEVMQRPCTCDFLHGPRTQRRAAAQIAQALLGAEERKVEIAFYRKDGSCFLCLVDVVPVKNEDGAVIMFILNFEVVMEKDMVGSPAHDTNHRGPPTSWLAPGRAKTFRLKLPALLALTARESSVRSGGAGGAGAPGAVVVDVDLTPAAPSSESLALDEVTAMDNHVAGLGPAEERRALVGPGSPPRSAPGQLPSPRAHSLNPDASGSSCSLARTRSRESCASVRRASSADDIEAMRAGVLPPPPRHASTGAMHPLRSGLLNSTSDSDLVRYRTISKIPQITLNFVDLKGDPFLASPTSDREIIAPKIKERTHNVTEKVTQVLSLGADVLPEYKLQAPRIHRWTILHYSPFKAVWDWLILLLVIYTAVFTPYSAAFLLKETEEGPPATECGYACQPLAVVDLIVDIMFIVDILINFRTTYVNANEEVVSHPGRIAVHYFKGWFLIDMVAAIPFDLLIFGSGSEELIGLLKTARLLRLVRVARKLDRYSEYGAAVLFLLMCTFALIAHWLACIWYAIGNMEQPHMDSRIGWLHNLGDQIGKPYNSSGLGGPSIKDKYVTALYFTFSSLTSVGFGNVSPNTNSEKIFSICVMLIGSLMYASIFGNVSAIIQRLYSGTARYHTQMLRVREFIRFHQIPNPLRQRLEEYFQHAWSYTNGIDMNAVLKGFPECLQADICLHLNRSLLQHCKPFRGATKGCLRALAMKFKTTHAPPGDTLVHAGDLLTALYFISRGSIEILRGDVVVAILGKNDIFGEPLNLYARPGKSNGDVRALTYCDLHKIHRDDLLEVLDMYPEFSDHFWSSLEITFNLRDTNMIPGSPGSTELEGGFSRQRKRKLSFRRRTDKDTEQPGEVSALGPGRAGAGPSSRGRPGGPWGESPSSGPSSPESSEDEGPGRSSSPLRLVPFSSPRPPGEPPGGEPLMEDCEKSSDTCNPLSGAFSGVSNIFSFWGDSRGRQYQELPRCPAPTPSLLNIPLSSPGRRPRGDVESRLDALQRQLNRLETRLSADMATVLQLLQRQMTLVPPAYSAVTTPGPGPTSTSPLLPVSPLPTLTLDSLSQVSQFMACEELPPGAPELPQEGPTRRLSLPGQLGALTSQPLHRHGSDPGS
T1 sequence (Q96P20 whole entry): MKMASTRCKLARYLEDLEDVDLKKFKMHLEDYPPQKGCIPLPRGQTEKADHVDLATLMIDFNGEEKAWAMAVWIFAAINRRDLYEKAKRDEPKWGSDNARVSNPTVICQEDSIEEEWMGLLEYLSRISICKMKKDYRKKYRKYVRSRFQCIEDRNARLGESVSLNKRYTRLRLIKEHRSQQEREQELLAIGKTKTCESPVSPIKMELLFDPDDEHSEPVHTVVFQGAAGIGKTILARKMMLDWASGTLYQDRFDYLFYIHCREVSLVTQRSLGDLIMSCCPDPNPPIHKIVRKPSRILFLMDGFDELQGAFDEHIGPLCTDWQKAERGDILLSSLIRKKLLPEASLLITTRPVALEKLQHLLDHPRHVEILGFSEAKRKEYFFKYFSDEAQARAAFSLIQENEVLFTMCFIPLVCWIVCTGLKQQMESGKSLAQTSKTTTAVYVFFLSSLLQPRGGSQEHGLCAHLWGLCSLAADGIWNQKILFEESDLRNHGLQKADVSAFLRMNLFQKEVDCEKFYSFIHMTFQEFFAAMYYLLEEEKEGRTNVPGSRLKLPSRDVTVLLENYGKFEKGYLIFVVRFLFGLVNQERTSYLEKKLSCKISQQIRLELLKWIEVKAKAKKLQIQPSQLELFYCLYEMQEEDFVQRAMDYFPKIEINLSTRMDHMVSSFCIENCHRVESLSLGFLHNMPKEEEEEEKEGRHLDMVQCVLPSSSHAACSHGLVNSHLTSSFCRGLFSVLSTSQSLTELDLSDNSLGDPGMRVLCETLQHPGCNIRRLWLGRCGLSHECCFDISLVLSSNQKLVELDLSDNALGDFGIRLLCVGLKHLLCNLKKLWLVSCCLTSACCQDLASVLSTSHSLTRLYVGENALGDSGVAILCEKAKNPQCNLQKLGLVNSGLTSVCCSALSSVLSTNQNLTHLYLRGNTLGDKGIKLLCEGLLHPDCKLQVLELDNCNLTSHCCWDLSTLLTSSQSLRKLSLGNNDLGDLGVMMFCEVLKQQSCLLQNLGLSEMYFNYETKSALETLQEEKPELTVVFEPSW

The compound `OC[C@@H](O)CNc1nnc(-c2c(O)cc(Cl)cc2F)c2ccccc12` [Example 9, (2S)-3-[[4-(4-chloro-2-fluoro-6-hydroxy-phenyl)phthalazin-1-yl]amino]propane-1,2-diol] showed a negative logarithm of the EC50 (pEC50) in data set [1] of 6.79. In data set [2], this compound returned an inhibition at 3 mg/kg of 77%. The same compound had a negative logarithm of the IC50 (pIC50) in data set [3] of 7.96. Besides, the solubility in data set [4] (setting [8]) came to 67.3 µg/mL (≈ 185 µM).
The compound `Cc1ccc2c(-c3ccc(C(F)(F)F)cc3O)nnc(NC[C@H](O)CO)c2c1` [Example 14, (2S)-3-[[4-[2-hydroxy-4-(trifluoromethyl)phenyl]-7-methyl-phthalazin-1-yl]amino]propane-1,2-diol] gave a pEC50 in data set [1] of 7.74. Besides, the figures for the solubility in data set [5] and in data set [4] (setting [8]) were 135 µM (≈ 53.1 µg/mL) and 56.3 µg/mL (≈ 143 µM), respectively. Further, in data set [2], at 3 mg/kg the inhibition was 75%. Moreover, the negative logarithm of the IC50 (pIC50) in data set [3] was 8.30.
`Oc1cc(C(F)(F)F)ccc1-c1nnc(N[C@@H]2CC[C@@H](O)C2)c2ccccc12` [Example 16, 2-[4-[[(1R,3R)-3-hydroxycyclopentyl]amino]phthalazin-1-yl]-5-(trifluoromethyl)phenol]: in data set [1], the negative-log EC50 (pEC50) was 7.27. Moreover, the values for the pIC50 in data set [6], in data set [3] and in data set [7] were 7.52, 7.70 and 4.66, respectively. For the same compound, the solubility in data set [4] (setting [8]) was 23.9 µg/mL (≈ 61.4 µM).
For `Oc1cc(C(F)(F)F)ccc1-c1nnc(N[C@@H]2CCC[C@@H]2O)c2ccccc12` [Example 19, 2-[4-[[(1R,2S)-2-hydroxycyclopentyl]amino]phthalazin-1-yl]-5-(trifluoromethyl)phenol], the pEC50 in data set [1] is 7.59. Moreover, the solubility in data set [5] stood at 171 µM (≈ 66.6 µg/mL); in data set [4] (setting [8]), 10.6 µg/mL (≈ 27.2 µM). The pIC50 in data set [6] was 7.70; in data set [3], 8.30; in data set [7] it was 4.64.
Take `Oc1cc(C(F)(F)F)ccc1-c1nnc(N[C@H]2CCC[C@H]2O)c2ccccc12` [Example 21, 2-[4-[[(1S,2R)-2-hydroxycyclopentyl]amino]phthalazin-1-yl]-5-(trifluoromethyl)phenol]: in data set [1], the pEC50 is 6.98. Besides, the solubility in data set [5] was determined as 71 µM (≈ 27.6 µg/mL); in data set [4] (setting [8]) it was 14.5 µg/mL (≈ 37.2 µM). For the same compound, the negative logarithm of the IC50 (pIC50) in data set [6] was 7.44; in data set [3], 8.10; in data set [7], 4.72.
Take `Oc1cc(C(F)(F)F)ccc1-c1nnc(N[C@@H]2CCCC[C@@H]2O)c2ccccc12` [Example 23, 2-[4-[[(1R,2S)-2-hydroxycyclohexyl]amino]phthalazin-1-yl]-5-(trifluoromethyl)phenol]: the negative-log EC50 (pEC50) in data set [1] was 6.81. The solubility in data set [5] amounted to 0.4 µM (≈ 0.161 µg/mL); in data set [4] (setting [8]), 4.4 µg/mL (≈ 10.9 µM). The pIC50 in data set [6] is 7.51; in data set [3], 7.85; in data set [7], 4.68.
Compound `Oc1cc(C(F)(F)F)ccc1-c1nnc(N[C@@H]2CCCC[C@H]2O)c2ccccc12` [Example 24, 2-[4-[[(1R,2R)-2-hydroxycyclohexyl]amino]phthalazin-1-yl]-5-(trifluoromethyl)phenol] gave a pEC50 in data set [1] of 7.42. The solubility amounted to 148 µM (≈ 59.7 µg/mL) in data set [5] and 7.9 µg/mL (≈ 19.6 µM) in data set [4] (setting [8]). The values for the pIC50 in data set [6], in data set [3] and in data set [7] were 8.05, 8.30 and 4.77, respectively.
On to `Oc1cc(C(F)(F)F)ccc1-c1nnc(N[C@H]2CCCC[C@H]2O)c2ccccc12` [Example 25, 2-[4-[[(1S,2R)-2-hydroxycyclohexyl]amino]phthalazin-1-yl]-5-(trifluoromethyl)phenol], for which, in data set [1], the pEC50 was 7.10. Also, the solubility in data set [5] was determined as 3 µM (≈ 1.21 µg/mL); in data set [4] (setting [8]) it was 1.8 µg/mL (≈ 4.46 µM). Moreover, the results for the pIC50 in data set [6], in data set [3] and in data set [7] were 7.44, 8.10 and 5.13, respectively.
For the compound `C[C@]1(O)CC[C@@H](Nc2nnc(-c3ccc(C(F)(F)F)cc3O)c3ccncc23)C1` [Example 39, 2-[4-[[(1R,3S)-3-hydroxy-3-methyl-cyclopentyl]amino]pyrido[3,4-d]pyridazin-1-yl]-5-(trifluoromethyl)phenol], the pEC50 in data set [1] is 7.23. Besides, the solubility was found to be 48 µM (≈ 19.4 µg/mL) in data set [5] and 10.2 µg/mL (≈ 25.2 µM) in data set [4] (setting [8]). Further, the pIC50 in data set [6] is 7.74; in data set [3], 8.15. In data set [2], this compound came in with an inhibition at 3 mg/kg of 58%.
In data set [2], `Oc1cc(C(F)(F)F)ccc1-c1nnc(N[C@@H]2CCC[C@H](O)C2)c2cnccc12` [Example 41, 2-[4-[[(1R,3S)-3-hydroxycyclohexyl]amino]pyrido[3,4-d]pyridazin-1-yl]-5-(trifluoromethyl)phenol] came in with an inhibition at 1 mg/kg of 94% and an inhibition at 3 mg/kg of 99%. For the same compound, in data set [4] (setting [8]), the solubility was 8.6 µg/mL (≈ 21.3 µM).
As for `Oc1cc(Cl)cc(F)c1-c1nnc(N[C@@H]2CCC[C@H](O)C2)c2cnccc12` [Example 46, 5-chloro-3-fluoro-2-[4-[[(1R,3S)-3-hydroxycyclohexyl]amino]pyrido[3,4-d]pyridazin-1-yl]phenol], the negative-log EC50 (pEC50) in data set [1] is 7.43. For the same compound, the solubility in data set [5] is 941 µM (≈ 366 µg/mL); in data set [4] (setting [8]), more than 77.8 µg/mL. Besides, in data set [2], the inhibition at 1 mg/kg worked out at 23%. In data set [2], at 3 mg/kg the inhibition was 65%. For the same compound, the pIC50 in data set [3] is 8.52; in data set [7], less than 4.40.
Consider `Oc1cc(OC(F)(F)F)ccc1-c1nnc(N[C@@H]2CCC[C@H](O)C2)c2cnccc12` [Example 48, 2-[4-[[(1R,3S)-3-hydroxycyclohexyl]amino]pyrido[3,4-d]pyridazin-1-yl]-5-(trifluoromethoxy)phenol], for which, in data set [1], the negative-log EC50 (pEC50) is 7.54. For the same compound, the solubility was found to be 326 µM (≈ 137 µg/mL) in data set [5] and 80.4 µg/mL (≈ 191 µM) in data set [4] (setting [8]). For the same compound, the pIC50 was 7.85 in data set [6], 8.40 in data set [3] and less than 4.40 in data set [7].
The compound `Oc1cc(C(F)(F)F)c(F)cc1-c1nnc(N[C@@H]2CCC[C@H](O)C2)c2cnccc12` [Example 53, 4-fluoro-2-[4-[[(1R,3S)-3-hydroxycyclohexyl]amino]pyrido[3,4-d]pyridazin-1-yl]-5-(trifluoromethyl)phenol] displayed an inhibition at 3 mg/kg in data set [2] of 65%. The compound further gave a negative logarithm of the IC50 (pIC50) in data set [3] of 8.15. The same compound yielded a solubility in data set [4] (setting [8]) of 62.5 µg/mL (≈ 148 µM).
The matching figures for `Oc1cc(C(F)(F)F)c(F)cc1-c1nnc(N[C@@H]2CCCC[C@H]2O)c2cnccc12` [Example 54, 4-fluoro-2-[4-[[(1R,2R)-2-hydroxycyclohexyl]amino]pyrido[3,4-d]pyridazin-1-yl]-5-(trifluoromethyl)phenol]: 55%, 8.40 and 45.7 µg/mL (≈ 108 µM).
Compound `Oc1cc(C(F)(F)F)cc(F)c1-c1nnc(N[C@@H]2CCCC[C@H]2O)c2cnccc12` [Example 55, 3-fluoro-2-[4-[[(1R,2R)-2-hydroxycyclohexyl]amino]pyrido[3,4-d]pyridazin-1-yl]-5-(trifluoromethyl)phenol] gave a negative-log EC50 (pEC50) in data set [1] of 7.42. For the same compound, the solubility in data set [5] turned out to be 529 µM (≈ 223 µg/mL); in data set [4] (setting [8]), 8.8 µg/mL (≈ 20.8 µM). The compound also displayed an inhibition at 3 mg/kg in data set [2] of 91%. Moreover, the pIC50 in data set [3] was 8.22; in data set [7], less than 4.40.
In turn, `Oc1cc(Cl)cc(F)c1-c1nnc(N[C@@H]2CCCC[C@H]2O)c2cnccc12` [Example 57, 5-chloro-3-fluoro-2-[4-[[(1R,2R)-2-hydroxycyclohexyl]amino]pyrido[3,4-d]pyridazin-1-yl]phenol] had a pEC50 in data set [1] of 7.77. The figures for the solubility in data set [5] and in data set [4] (setting [8]) were 596 µM (≈ 232 µg/mL) and 36.9 µg/mL (≈ 94.9 µM), respectively. In data set [2], this compound yielded an inhibition at 1 mg/kg of 42%. Besides, the inhibition at 3 mg/kg in data set [2] amounted to 87%. Moreover, the values for the negative logarithm of the IC50 (pIC50) in data set [3] and in data set [7] were 8.30 and less than 4.40, respectively.
In the case of `C[C@@]1(O)CCC[C@@H](Nc2nnc(-c3ccc(C(F)(F)F)cc3O)c3ccncc23)C1` [Example 61, 2-[4-[[(1R,3R)-3-hydroxy-3-methyl-cyclohexyl]amino]pyrido[3,4-d]pyridazin-1-yl]-5-(trifluoromethyl)phenol], the negative-log EC50 (pEC50) in data set [1] is 7.54. Further, the solubility was found to be 389 µM (≈ 163 µg/mL) in data set [5] and 64 µg/mL (≈ 153 µM) in data set [4]. The compound also gave an inhibition at 3 mg/kg in data set [2] of 97%. Moreover, the pIC50 was 8.15 in data set [3] and 4.47 in data set [7].
In data set [1], `CC(C)(O)CNc1nnc(-c2c(O)cc(C(F)(F)F)cc2F)c2ccncc12` [Example 74, 3-fluoro-2-[4-[(2-hydroxy-2-methyl-propyl)amino]pyrido[3,4-d]pyridazin-1-yl]-5-(trifluoromethyl)phenol] had a negative logarithm of the EC50 (pEC50) of 6.69. Further, the solubility in data set [5] amounted to 17 µM (≈ 6.74 µg/mL); in data set [4] (setting [8]), 12.1 µg/mL (≈ 30.5 µM). In data set [2], the inhibition at 3 mg/kg worked out at 68%. In data set [3], the pIC50 was 7.74.
Regarding `Oc1cc(F)ccc1-c1nnc(N[C@@H]2CCCC[C@H]2O)c2cnccc12` [Example 75, 5-fluoro-2-(4-(((1R,2R)-2-hydroxycyclohexyl)amino)pyrido[3,4-d]pyridazin-1-yl)phenol], the pEC50 in data set [1] is 6.91. The negative-log IC50 (pIC50) is 8.00 in data set [6] and less than 4.40 in data set [7].
In data set [1], `Oc1cc(C(F)(F)F)ccc1-c1nnc(N[C@H]2CC[C@@H](O)C2)c2cnccc12` [Example 83, 2-[4-[[(1S,3R)-3-hydroxycyclopentyl]amino]pyrido[3,4-d]pyridazin-1-yl]-5-(trifluoromethyl)phenol] had a pEC50 of 6.89. Also, the solubility in data set [5] is 47 µM (≈ 18.3 µg/mL); in data set [4] (setting [8]), 4.7 µg/mL (≈ 12 µM). The pIC50 in data set [6] was 7.42; in data set [3], 7.70; in data set [7], less than 4.40.

As usually defined, the pEC50 is −log10 of the EC50, conventionally taken in molar units. A lower pEC50 goes with a high EC50. As a reminder, the inhibition is the drop in the measured response relative to a control, in per cent. Lower therefore signals a weak effect. The pIC50 is the IC50 on a negative log10 scale, so that one unit is a factor of ten. In general, solubility refers to the dissolved amount per volume that the medium holds. The low end stands for little dissolved substance, the high end for much dissolved substance.

Source of the values: patent US11970463B2, “Compounds and their use” (ASTRAZENECA AB, priority 2021, dated 2024).
